What is called inhibition is how much of the control response was suppressed.

One experiment concerns the target T1, human Kv1.3 (Homo sapiens, UniProt P22001).
T1 construct: expressed in transfected cells
The experiment can be described thus: Kv1.3 whole cell patch electrophysiology (AutoPatch / conventional). The format is cell-based. Conditions: 1 μM compound; cells stably transfected with human Kv1.3; whole cell mode; room temperature. The procedure: Kv1.3 Autopatch Electrophysiology Method
Cells stably transfected with cDNA for human Kv1.3 were grown in Dulbecco's Modified Eagle media (DMEM) alpha supplemented with 10% Fetal Calf Serum (FCS), 20 μl/ml penicillin (5000 U/ml) streptomycin (5000 μg/ml), 10 μl/ml [100×] glutamine, and blasticidin (7.5 μg/ml). Compounds were tested on these cells using the AutoPatch technology in whole cell mode.
The external bathing solution contained (in mM): 150 NaCl, 10 KCl, 1 MgCl2, 3 CaCl2, 10 HEPES, pH 7.4 with NaOH. Patch pipettes were filled with an electrode solution of composition (in mM): 100 K-Gluconate, 20 KCl, 1 MgCl2, 1 CaCl2, 10 HEPES, 11 EGTA, 5 ATP-Na2, 2 Glutathione pH 7.2 with KOH.
(§1) Compounds were dissolved in DMSO (100%) and made up in the external bather at a concentration of 1 μM. All experiments were conducted at room temperature (22-24° C.).
(§2) A cell suspension (10 ml), with a density of 100,000 cells/ml, was aliquoted into a 15 ml centrifuge tube and transferred to an incubator (37° C., 5% CO2) for approximately one hour before use. Following 60 min incubation, a tube was taken and centrifuged at 1000 rpm for 4 mins at room temperature. 9.5 ml supernatant was thence discarded, leaving a cell pellet at the bottom of the tube. The pellet was then resuspended using 100 μl of cold (4° C.), filtered (0.22 μm), 0.2% BSA/bather solution (0.02 g BSA/10 ml bather). The bottom of the tube was manually agitated gently until the solution became cloudy with cells. The 100 μl cell resuspension solution was then stored on the bench at 4° C. (using a Peltier-based temperature control device) until used.
(§3) A length of capillary glass (1B150F-4, WPI) was dipped into the cell suspension solution, such that ˜3 cm column of fluid was taken up by capillary action. A Ag/AgCl wire was dropped into the non-dipped end of the capillary also. The outside of the solution-filled end of the capillary was then dried and the capillary was loaded into the AutoPatch™. Borosilicate glass patch pipettes (from 1.5 mm OD, thin-walled filamented, GC150-TF capillary glass, Harvard) were pulled using a DMZ pipette puller (Zeitz Instruments), and were back-filled using the internal pipette solution, being careful that no bubbles remain at the tip or in the body of the pipette. Patch pipettes typically had resistances of 2.3-3.5 MΩ. Once filled, the pipette tip and a proportion of the shaft (˜15mm) were dipped into Sigmacote (Sigma). The recording pipette was then loaded into the AutoPatch™. Automated patch-clamping was initiated by the operator, but thereafter AutoPatch.exe continued the experiment providing that pre-set conditions and criteria were satisfied.
(§4) Whole cell patch-clamp recordings were made using the AutoPatch™ rig, which incorporated an EPC9 or EPC10 amplifier (HEKA, Germany) under control of Pulse software (v8.54 or v8.76, HEKA, Germany), a motion controller with 2 translators (Newport, UK), valve controller (VF1) and a c-level suction device all at room temperature (22-24° C.). This equipment was completely under the control of AutoPatch.exe and operator intervention was only made when there was a requirement to refill the drug reservoirs or to prevent the loss of a cell due to a technical error. Cells with an Rseries greater than 18 MΩ were discounted from the experiment.
Qualification stages prior to perfusion and drug application ensured that the observed current met the criteria for the experiment. Only those cells with an IK>400 pA were used for experiments. Cells were continuously perfused with external solution at a flow rate of 1.8-2 ml/minute. […] Online analysis of the hKv1.3 current during the application of compounds was performed by the AutoPatch™ software. Voltage-step protocols and analysis of data was performed as described for conventional electrophysiology.
Electrophysiology voltage-step protocols and analysis of data was performed as follows. Data was sampled at 5 kHz, and filtered with a −3 dB bandwidth of 2.5 kHz. […]

Another experiment has as its target T2, human Kv1.5 (Homo sapiens, UniProt P22460).
T2 construct: expressed in transfected cells
The experiment can be described thus: Kv1.5 whole cell patch electrophysiology (AutoPatch / conventional). The format is cell-based. To be noted: 1 μM compound; cells stably transfected with human Kv1.5; whole cell mode; room temperature. The procedure:
Kv1.5 Autopatch Electrophysiology Method
Cells stably transfected with cDNA for human Kv1.5 (in pEF6::VA-His-TOPO) were grown in Dulbecco's Modified Eagle media (DMEM) alpha supplemented with 10% Fetal Calf Serum (FCS), 20 μl/ml penicillin (5000 U/ml) streptomycin (5000 μg/ml), 10 μl/ml [100×] glutamine, and blasticidin (7.5 μg/ml). Compounds were tested on these cells using the AutoPatch technology in whole cell mode.
The external bathing solution contained (in mM): 150 NaCl, 10 KCl, 1 MgCl2, 3 CaCl2, 10 HEPES, pH 7.4 with NaOH. Patch pipettes were filled with an electrode solution of composition (in mM): 160 KCl, 0.5 MgCl2, 10 HEPES, 1 EGTA, pH 7.4 with KOH.
as §1, §2
as §3, with “(˜15 mm)” for “(˜15mm)”
as §4
Qualification stages prior to perfusion and drug application ensured that the observed current met the criteria for the experiment. Only those cells with an IK>500 pA were used for experiments. Cells were continuously perfused with external solution at a flow rate of 1.8-2 ml/minute. […] Online analysis of the hKv1.5 current during the application of compounds was performed by the AutoPatch™ software. Voltage-step protocols and analysis of data was performed as described for conventional electrophysiology.
Electrophysiology voltage-step protocols and analysis of data was performed as follows. Data was sampled at 5kHz, and filtered with a −3 dB bandwidth of 2.5 kHz.
Cells were held at a voltage of −80 mV. […]

T1 sequence (P22001 whole entry): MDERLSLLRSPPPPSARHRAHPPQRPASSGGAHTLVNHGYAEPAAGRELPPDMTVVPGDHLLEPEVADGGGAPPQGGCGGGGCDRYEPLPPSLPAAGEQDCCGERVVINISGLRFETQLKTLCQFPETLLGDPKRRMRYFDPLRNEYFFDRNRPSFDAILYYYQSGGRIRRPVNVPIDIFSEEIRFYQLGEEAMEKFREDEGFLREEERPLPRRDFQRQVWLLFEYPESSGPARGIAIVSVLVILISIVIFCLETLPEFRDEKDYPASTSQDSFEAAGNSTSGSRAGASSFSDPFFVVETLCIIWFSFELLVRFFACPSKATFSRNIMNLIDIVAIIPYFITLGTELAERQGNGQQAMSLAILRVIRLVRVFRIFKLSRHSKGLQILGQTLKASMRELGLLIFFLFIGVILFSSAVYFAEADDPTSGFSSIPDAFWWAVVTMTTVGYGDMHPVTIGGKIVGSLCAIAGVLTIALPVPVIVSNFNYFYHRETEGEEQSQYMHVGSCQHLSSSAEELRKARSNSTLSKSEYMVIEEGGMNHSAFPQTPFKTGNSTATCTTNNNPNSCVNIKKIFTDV
T2 sequence (P22460 whole entry): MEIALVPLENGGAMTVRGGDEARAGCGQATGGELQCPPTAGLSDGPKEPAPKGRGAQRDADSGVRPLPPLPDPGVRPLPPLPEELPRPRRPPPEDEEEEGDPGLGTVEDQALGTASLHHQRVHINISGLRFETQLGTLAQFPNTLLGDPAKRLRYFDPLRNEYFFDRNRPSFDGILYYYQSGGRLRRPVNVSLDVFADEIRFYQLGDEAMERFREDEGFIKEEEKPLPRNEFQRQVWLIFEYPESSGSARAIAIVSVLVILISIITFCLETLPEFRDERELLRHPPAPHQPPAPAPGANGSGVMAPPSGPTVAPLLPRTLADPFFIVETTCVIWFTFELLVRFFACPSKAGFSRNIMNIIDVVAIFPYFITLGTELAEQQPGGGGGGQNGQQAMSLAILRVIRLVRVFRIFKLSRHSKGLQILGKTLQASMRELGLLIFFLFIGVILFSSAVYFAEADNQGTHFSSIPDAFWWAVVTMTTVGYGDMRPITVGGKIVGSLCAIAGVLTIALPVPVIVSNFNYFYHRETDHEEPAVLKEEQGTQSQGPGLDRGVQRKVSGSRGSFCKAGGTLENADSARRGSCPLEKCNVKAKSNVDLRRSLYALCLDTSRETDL

For the molecule `Cc1cccc(CNc2cc(Cl)nc3scc(-c4ccc(F)cc4)c23)n1` [Example 22, [6-Chloro-3-(4-fluoro-phenyl)-thieno[2,3-b]pyridin-4-yl]-(6-methyl-pyridin-2-ylmethyl)-amine], the inhibition at 1 µM against human Kv1.3 amounted to 78%; against human Kv1.5 it was 95%.
The like results for `OCCNc1cc(NCc2ccccn2)c2c(-c3ccccc3)csc2n1` [Example 24, 2-{3-Phenyl-4-[(pyridin-2-ylmethyl)-amino]-thieno[2,3-b]pyridin-6-ylamino}-ethanol] were, in that order, 93% and 79%.
For `OCCN(CCO)c1cc(NCc2ccccn2)c2c(-c3ccc(F)cc3)csc2n1` [Example 26, 2-[{3-(4-Fluoro-phenyl)-4-[(pyridin-2-ylmethyl)-amino]-thieno[2,3-b]pyridin-6-yl}-(2-hydroxy-ethyl)-amino]-ethanol], in that order: 45% and 91%.
The like results for `OCCN(CCO)c1cc(NCc2ccccn2)c2c(-c3ccccc3)csc2n1` [Example 25, 2-((2-Hydroxy-ethyl)-{3-phenyl-4-[(pyridin-2-ylmethyl)-amino]-thieno[2,3-b]pyridin-6-yl}-amino)-ethanol] were, in that order, 82% and 81%.
Consider `Cc1cccc(CNc2ccnc3scc(-c4ccc(F)cc4)c23)n1` [Example 37, [3-(4-Fluoro-phenyl)-thieno[2,3-b]pyridin-4-yl]-(6-methyl-pyridin-2-ylmethyl)-amine], for which the inhibition at 1 µM against human Kv1.3 came out at 30%; against human Kv1.5, 36%.
Take `Fc1ccc(-c2csc3nccc(NCc4ccccn4)c23)cc1` [Example 36, [3-(4-Fluoro-phenyl)-thieno[2,3-b]pyridin-4-yl]-pyridin-2-ylmethyl-amine]: the inhibition at 1 µM against human Kv1.3 turned out to be 32%; on human Kv1.5, 20%.
On to `Clc1cc(NCc2ccccn2)nc2scc(-c3ccccc3)c12` [Example 20, (4-Chloro-3-phenyl-thieno[2,3-b]pyridin-6-yl)-pyridin-2-ylmethyl-amine], for which the inhibition at 1 µM against human Kv1.3 came out at 99%; against human Kv1.5 it was 93%.
The like results for `OCCNc1cc(NCc2ccccn2)c2c(-c3ccc(F)cc3)csc2n1` [Example 27, 2-{3-(4-Fluoro-phenyl)-4-[(pyridin-2-ylmethyl)-amino]-thieno[2,3-b]pyridin-6-ylamino}-ethanol] were, in that order, 72% and 55%.
For `Fc1ccc(-c2csc3nc(Cl)cc(NCc4ccccn4)c23)cc1` [Example 21, [6-Chloro-3-(4-fluoro-phenyl)-thieno[2,3-b]pyridin-4-yl]-pyridin-2-ylmethyl-amine], in that order: 71% and 59%.
In the case of `Cc1cccc(CNc2cc(N(CCO)CCO)nc3scc(-c4ccc(F)cc4)c23)n1` [Example 28, 2-[{3-(4-Fluoro-phenyl)-4-[(6-methyl-pyridin-2-ylmethyl)-amino]-thieno[2,3-b]pyridin-6-yl}-(2-hydroxy-ethyl)-amino]-ethanol], the inhibition at 1 µM was determined as 20% at human Kv1.3 and 21% against human Kv1.5.
The like results for `OCCc1cc(NCc2ccccn2)c2c(-c3ccccc3)csc2n1` [Example 43, 2-{3-Phenyl-4-[(pyridin-2-ylmethyl)-amino]-thieno[2,3-b]pyridin-6-yl}-ethanol] were, in that order, 20% and 94%.
The like results for `OCC(CO)c1cc(NCc2ccccn2)c2c(-c3ccccc3)csc2n1` [Example 44, 2-{3-Phenyl-4-[(pyridin-2-ylmethyl)-amino]-thieno[2,3-b]pyridin-6-yl}-propane-1,3-diol] were, in that order, 8% and 82%.
For `Clc1cc(NCc2ccccn2)c2c(-c3ccccc3)csc2n1` [Example 19, (6-Chloro-3-phenyl-thieno[2,3-b]pyridin-4-yl)-pyridin-2-ylmethyl-amine], in that order: 72% and 88%.
Regarding `c1ccc(-c2csc3nccc(NCc4ccccn4)c23)cc1` [Example 35, (3-Phenyl-thieno[2,3-b]pyridin-4-yl)-pyridin-2-ylmethyl-amine], the values for the inhibition at 1 µM against human Kv1.3 and against human Kv1.5 were 45% and 62%, respectively.
In the case of `Cc1cccc(CNc2cc(NCCO)nc3scc(-c4ccc(F)cc4)c23)n1` [Example 29, 2-{3-(4-Fluoro-phenyl)-4-[(6-methyl-pyridin-2-ylmethyl)-amino]-thieno[2,3-b]pyridin-6-ylamino}-ethanol], the inhibition at 1 µM against human Kv1.3 came out at 62%; at human Kv1.5 it was 31%.

(Values after patent publication US7576212B2, “Thieno[2,3-B] pyridines as potassium channel inhibitors” (Xention Limited, priority 2004, dated 2009).)
